Read-outs that look alike come from different tables or passages of the source.
Tests used:
[1] = target: T1, hGnRH receptor (Homo sapiens, UniProt P30968); assay: Total inositol phosphates measurement, 293 cells containing the hGnRH receptor; assay type: cell-based; settings: for GnRH functional: no species or readout annotated
T1 construct: expressed in transfected cells; host or cells: HEK 293 (hGnRH-R/293, from Dr. Stuart Sealfon)
T1 sequence (P30968 1-328): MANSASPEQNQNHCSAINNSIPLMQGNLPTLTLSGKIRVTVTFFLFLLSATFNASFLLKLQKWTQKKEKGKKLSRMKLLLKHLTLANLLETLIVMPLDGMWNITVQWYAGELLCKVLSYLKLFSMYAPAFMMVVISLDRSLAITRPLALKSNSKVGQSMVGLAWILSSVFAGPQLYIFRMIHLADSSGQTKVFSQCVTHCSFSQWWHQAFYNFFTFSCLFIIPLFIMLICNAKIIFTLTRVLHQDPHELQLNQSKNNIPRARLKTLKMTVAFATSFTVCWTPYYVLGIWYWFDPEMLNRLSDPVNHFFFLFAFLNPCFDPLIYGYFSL
Outline: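 hGnRH-R/293 cells (~200,000 cells/well) were exposed to test compounds or vehicle for 30 min at 37 °C. The reaction was stopped with ice-cold 10 mM formic acid, and total inositol phosphates were isolated on Dowex ion-exchange columns, eluted with 1 M ammonium formate/0.1 M formic acid. Eluates were quantified by liquid scintillation counting.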

[2] = Pharmacokinetic studies / bioavailability in rats; assay type: in vivo, rat; settings: for half-life / Cmax / Tmax / bioavailability: rat, plasma; for Cmax / Tmax: po, 20 mg/kg; for Cmax / Tmax / Fp.o.: p.o. 20 mg/kg
[3] = target: T2, mouse GnRH receptor (Mus musculus, UniProt Q01776); assay: Radioligand binding, 125I-GnRH-A, 293 cells expressing mouse GnRH receptors; settings: read-out: mGnRH IC50
T2 construct: expressed in transfected cells; host or cells: 293 cells
T2 sequence (Q01776 1-327): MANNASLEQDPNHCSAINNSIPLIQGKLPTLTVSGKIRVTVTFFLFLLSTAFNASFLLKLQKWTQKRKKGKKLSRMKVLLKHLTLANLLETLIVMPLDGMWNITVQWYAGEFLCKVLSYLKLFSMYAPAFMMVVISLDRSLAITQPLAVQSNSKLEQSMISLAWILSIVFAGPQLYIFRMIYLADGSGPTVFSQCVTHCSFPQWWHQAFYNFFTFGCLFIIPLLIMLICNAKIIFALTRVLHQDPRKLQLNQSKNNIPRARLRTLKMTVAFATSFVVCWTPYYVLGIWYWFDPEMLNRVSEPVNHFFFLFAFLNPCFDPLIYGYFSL
Outline: (§1)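 Bound label captured on 0.1% polyethyleneimine-treated GF/C filters, washed three times with PBS, counted. IC50 derived; identical set-up for every species.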

[4] = target: T3, rat GnRH receptor (Rattus norvegicus, UniProt P30969); assay: Radioligand binding, 125I-GnRH-A, rat pituitary membranes; set-up: membranes were prepared from rat pituitary; from tissue; host or cells: rat pituitary; settings: read-out: rGnRH IC50
T3 sequence (P30969 1-327): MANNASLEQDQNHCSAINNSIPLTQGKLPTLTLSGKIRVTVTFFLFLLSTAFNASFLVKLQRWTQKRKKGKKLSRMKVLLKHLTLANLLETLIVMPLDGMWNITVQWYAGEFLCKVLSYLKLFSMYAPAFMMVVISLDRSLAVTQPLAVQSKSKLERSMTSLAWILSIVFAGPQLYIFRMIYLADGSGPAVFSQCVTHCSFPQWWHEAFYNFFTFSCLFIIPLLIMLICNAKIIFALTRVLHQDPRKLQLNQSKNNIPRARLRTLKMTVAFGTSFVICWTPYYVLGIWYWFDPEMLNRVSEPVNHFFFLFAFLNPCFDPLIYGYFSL
Outline: as §1

[5] = target: D2 Dopamine (Homo sapiens, UniProt P14416); assay: Selectivity: D2 Dopamine
D2 Dopamine, sequence (P14416 whole entry): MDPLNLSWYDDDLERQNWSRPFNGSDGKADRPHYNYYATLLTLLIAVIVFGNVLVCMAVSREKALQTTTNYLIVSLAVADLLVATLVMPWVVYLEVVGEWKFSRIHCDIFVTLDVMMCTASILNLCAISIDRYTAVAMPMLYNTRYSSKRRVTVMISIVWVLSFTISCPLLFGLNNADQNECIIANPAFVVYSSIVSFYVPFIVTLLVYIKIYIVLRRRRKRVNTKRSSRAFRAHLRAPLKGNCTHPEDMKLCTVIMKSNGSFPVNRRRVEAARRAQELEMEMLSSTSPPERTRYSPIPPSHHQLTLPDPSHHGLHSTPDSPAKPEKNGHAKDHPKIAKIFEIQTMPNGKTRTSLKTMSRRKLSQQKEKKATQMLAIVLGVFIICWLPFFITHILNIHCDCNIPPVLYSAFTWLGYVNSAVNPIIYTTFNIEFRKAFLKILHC

[6] = target: T4, human GnRH receptor (Homo sapiens, UniProt P30968); assay: Radioligand binding, 125I-GnRH-A displacement, membranes of HEK 293 cells with human GnRH receptor
T4 construct: expressed in transfected cells; host or cells: HEK 293 (hGnRH-R/293, from Dr. Stuart Sealfon)
T4 sequence (P30968 1-328): T1 sequence (P30968 1-328)
Outline: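 After filtration and PBS washes, bound radioactivity was counted by scintillation and IC50 derived. Identical conditions applied for non-human receptors.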

[7] = Metabolism rate, pmol/min/mg at 1 μM, rat male; assay type: in vitro ADME; settings: 1 μM compound
[8] = male, rat male, vehicle per footnote (DMSO/cremophor/saline)
[9] = rat male, vehicle per footnote (DMSO/cremophor/saline)
[10] = female, rat female, 10 mg/ml solution in 10% DMSO 10% cremophor 80% saline
[11] = male, castrated male rats, 10 mg/ml solution in 10% DMSO 10% cremophor 80% saline
[12] = male, rat male, 40 mg/ml in PEG400
[13] = ip, i.p. 20 mg/kg, read-out: Bioavailability after i.p. dosing
[14] = rat female, 10 mg/ml solution in 10% DMSO 10% cremophor 80% saline

With `Cc1cc2c(cc1Cc1ccc(C(=O)NCc3nc4ccccc4[nH]3)o1)C(C)(C)CCC2(C)C` [Compound 48] the GnRH functional [1] was “Antag- onist”, the half-life ([2]; male, iv, 10 mg/kg, rat male) was 1.1 h and the Cmax [2, 8] was 0.33 µM. For the same molecule, the Tmax [2, 8] was 1.5 h, the Fp.o. [2, 9] was 4% (20 mg/kg)^1 and the IC50 [3] was 0.01 µM. The IC50 [4] was 0.006 µM, the Ki [5] was > 3.2 µM and the IC50 ([6]; read-out: hGnRH IC50) was 0.05 µM. The IC50 ([6]; second value marked * (mostly in parentheses), asterisk not explained, read-out: hGnRH IC50, value marked *) was 0.04 µM and the “Rat male pmol/min/mg 1 μM” value [7] was 2869 pmol/min/mg.
With `COc1cc(OC)c(NC(=O)c2ccc(Cc3cc4c(cc3C)C(C)(C)CCC4(C)C)o2)c(OC)c1` [Compound 134] the Kb ([1]; human, PI (inositol phosphates)) was 0.013 µM, the GnRH functional [1] was “Antag- onist” and the Fp.o. ([2]; castrated male rats, 10 mg/ml solution in 10% DMSO 10% cremophor 80% saline) was 23% (20 mg/kg)^1. The Cmax [2, 10] was 2.31 µM, the Tmax [2, 10] was 1 h and the half-life ([2]; female, rat female) was 1.7 h. The half-life ([2]; male, castrated male rats) was 1.7 h, the half-life ([2]; male, iv, 10 mg/kg, rat male) was 1.4 h and the Cmax [2, 11] was 1.98 µM. The Tmax [2, 11] was 1.5 h, the Cmax [2, 12] was 0.23 µM and the Cmax [2, 8] was 0.61 µM. The Tmax [2, 8] was 1 h, the bioavailability [2, 13] was 38% and the Fp.o. [2, 14] was 24% (20 mg/kg)^1. For the same molecule, the Fp.o. [2, 9] was 8% (20 mg/kg)^5, the IC50 [3] was 0.003 µM and the IC50 [4] was 0.003 µM. For the same molecule, the Ki [5] was 2.4 µM, the IC50 ([6]; read-out: hGnRH IC50) was 0.006 µM and the “Rat male pmol/min/mg 1 μM” value [7] was 3909 pmol/min/mg.
With `Cc1cc2c(cc1Cc1ccc(C(=O)NCc3cccc(CNc4ccnc(NC[C@@H]5CCCO5)n4)c3)o1)C(C)(C)CCC2(C)C` [Compound 136] the GnRH functional [1] was “Antag- onist”, the Cmax [2, 10] was 0.24 µM and the Tmax [2, 10] was 2.5 h. The half-life ([2]; female, rat female) was 3.2 h, the half-life ([2]; male, iv, 10 mg/kg, rat male) was 2 h and the Tmax [2, 12] was 4 h. The Tmax ([2]; male, rat male, in PG) was 3.5 h, the Cmax [2, 8] was 0.24 µM and the Tmax [2, 8] was 2 h. The bioavailability ([2]; other: portal vein infusion, portal vein infusion 20 mg/kg, read-out: Portal vein infusion: bioavailable) was 36%, the Fp.o. [2, 14] was 8% (20 mg/kg)^1 and the Fp.o. [2, 9] was 6% (20 mg/kg)^4. The IC50 [3] was 0.0086 µM, the IC50 [4] was 0.0047 µM and the Ki [5] was 0.16 µM. For the same molecule, the “Rat male pmol/min/mg 1 μM” value [7] was 4437 pmol/min/mg.
With `COc1cc(OC)c(NC(=O)c2ccc(Cc3cc4c(cc3OC)C(C)(C)CCC4(C)C)o2)c(OC)c1` [Compound 169] the GnRH functional [1] was “Antag- onist”, the half-life ([2]; male, iv, 10 mg/kg, rat male) was 1.5 h and the Cmax [2, 8] was 0.97 µM. For the same molecule, the Tmax [2, 8] was 1 h, the bioavailability [2, 13] was 70% and the Fp.o. [2, 9] was 27% (20 mg/kg)^1. It also gave an IC50 [3] of 0.005 µM, an IC50 [4] of 0.007 µM and a Ki [5] of 3.4 µM. For the same molecule, the IC50 ([6]; read-out: hGnRH IC50) was 0.012 µM and the “Rat male pmol/min/mg 1 μM” value [7] was 3320 pmol/min/mg.
